One experiment addresses D3 receptor (Homo sapiens (Human), UniProt P35462). The experiment in a line: Radioligand binding ([3H]-spiperone) to cloned D3 receptor expressed in HEK-293 EBNA cells. As to conditions: HEK293 EBNA membranes, 0.5 nM [3H]-spiperone. How it is done:
(§1) HEK293 EBNA cells were transiently transfected with expression plasmids encoding for the human D2 or D3 or for the human 5-HT2A receptor, respectively. The cells were harvested 48 h post-transfection, washed three times with cold PBS and stored at −80° C. prior to use. The pellet was suspended in cold 50 mM Tris-HCl buffer containing 10 mM EDTA (pH 7.4) and was homogenized with a Polytron (Kinematica AG, Basel, Switzerland) for 20-30 sec at 12.000 rpm. After centrifugation at 48.000×g for 30 min at 4° C., the pellet was resuspended in cold 10 mM Tris-HCl buffer containing 0.1 mM EDTA (pH 7.4), homogenized, and centrifuged as above. This pellet was further resuspended in a smaller volume of ice cold 10 mM Tris-HCl buffer containing 0.1 mM EDTA (pH 7.4) and homogenized with a Polytron for 20-30 sec at 12.000 rpm. The protein content of this homogenate was determined with the Bio-Rad (Bradford) Protein Assay (Biorad Laboratories GmbH, München, Germany) according to the instructions of the manufacturer using gamma globulin as the standard. This homogenate was stored at −80° C. in aliquots and thawed immediately prior to use.
(§2) Radioligand Binding Assay
(§3) Aliquots of membrane preparations were thawed at RT, resupended in assay buffer (D2, D3: 50 mM Tris-HCl, 120 mM NaCl, 5 mM MgCl2, 1 mM EDTA, 5 mM KCl, 1.5 mM CaCl2, pH=7.4; 5-HT2A: 50 mM Tris-HCl, 10 mM MgCl2, 1 mM EGTA, pH=7.4), homogenized with a Polytron for 20-30 sec at 12.000 rpm and adjusted to a final concentration of approximately 7.5 μg protein/well (D2, D3) and 15 μg protein/well (5-HT2A), respectively.
The binding affinity (Ki) of the compounds was determined using radioligand binding. […] At the end of the incubation, the reaction mixtures were filtered on to unifilter 96-well white microplates with bonded GF/C filters (Packard BioScience, Zürich, Switzerland; preincubated for 1 h in 0.1% polyethylenimine (PEI) in assay buffer) with a Filtermate 196 harvester (Packard BioScience) and washed 3 times with cold assay buffer. The nonspecific binding was determined with equally composed reaction mixtures in the presence of 10 μM unlabelled spiperone. Per well 45 μl of Microscint 40 (Perkin Elmer, Schwerzenbach, Switzerland) was added, plates for sealed, shaken for 20 min and counted for 3 min on a Topcount Microplate Scintillation Counter (Canberra Packard SA, Zürich, Switzerland) with quenching correction.
(§4) The CPM value for each duplicate of a concentration of competing compound was averaged (y1), then the % specific binding was calculated according to the equation (((y1−non-specific)/(total binding−non-specific))×100). Graphs were plotted with the % specific binding using XLfit, a curve fitting program that iteratively plots the data using Levenberg-Marquardt algorithm. The single site competition analysis equation used was y=A+((B−A)/(1+((x/C)D))), where y is the % specific binding, A is the minimum y, B is the maximum y, C is the IC50, x is the log 10 of the concentration of the competing compound and D is the slope of the curve (the Hill Coefficient). […] The affinity constant (Ki) was calculated using the Cheng-Prusoff equation Ki=(IC50/1+([L]/Kd), where [L] is the concentration of radioligand and Kd is the dissociation constant of the radioligand at the receptor as determined by the saturation isotherm.

The next experiment concerns the target D2 receptor (Homo sapiens (Human), UniProt P14416). The experiment in a line: Radioligand binding ([3H]-spiperone) to cloned D2 receptor expressed in HEK-293 EBNA cells. As to conditions: HEK293 EBNA membranes, 0.7 nM [3H]-spiperone. How it is done: as §1, §2, §3
The binding affinity (Ki) of the compounds was determined using radioligand binding. […] The nonspecific binding was determined with equally composed reaction mixtures in the presence of 10 μM unlabelled spiperone. Per well 45 μl of Microscint 40 (Perkin Elmer, Schwerzenbach, Switzerland) was added, plates for sealed, shaken for 20 min and counted for 3 min on a Topcount Microplate Scintillation Counter (Canberra Packard SA, Zürich, Switzerland) with quenching correction.
as §4

D3 receptor, sequence (P35462 whole entry): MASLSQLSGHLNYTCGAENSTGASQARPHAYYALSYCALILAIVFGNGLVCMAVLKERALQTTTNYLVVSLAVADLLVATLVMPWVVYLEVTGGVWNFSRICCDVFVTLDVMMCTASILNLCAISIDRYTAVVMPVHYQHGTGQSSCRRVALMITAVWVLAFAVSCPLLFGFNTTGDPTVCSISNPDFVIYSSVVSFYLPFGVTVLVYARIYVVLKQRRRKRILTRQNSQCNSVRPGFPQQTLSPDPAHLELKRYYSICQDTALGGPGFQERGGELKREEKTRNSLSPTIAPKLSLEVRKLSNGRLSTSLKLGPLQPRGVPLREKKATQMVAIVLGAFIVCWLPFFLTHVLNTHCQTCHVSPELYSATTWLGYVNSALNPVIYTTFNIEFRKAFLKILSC
D2 receptor, sequence (P14416 whole entry): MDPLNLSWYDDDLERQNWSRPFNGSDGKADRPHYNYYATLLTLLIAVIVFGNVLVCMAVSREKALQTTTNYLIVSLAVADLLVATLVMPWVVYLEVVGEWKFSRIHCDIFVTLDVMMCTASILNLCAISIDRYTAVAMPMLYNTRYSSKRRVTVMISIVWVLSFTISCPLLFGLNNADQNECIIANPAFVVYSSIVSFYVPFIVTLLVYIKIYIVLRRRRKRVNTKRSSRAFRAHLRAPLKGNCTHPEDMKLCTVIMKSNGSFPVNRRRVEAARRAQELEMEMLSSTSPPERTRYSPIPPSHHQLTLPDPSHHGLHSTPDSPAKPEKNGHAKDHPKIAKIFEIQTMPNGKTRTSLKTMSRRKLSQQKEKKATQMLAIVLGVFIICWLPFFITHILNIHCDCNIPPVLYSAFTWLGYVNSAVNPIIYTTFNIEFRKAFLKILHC

`CCC(=O)N[C@H]1CC[C@H](CCN2CCN(c3cccc4c3OCO4)CC2)CC1` [Example 7, Trans-N-{4-[2-(4-Benzo[1,3]dioxol-4-yl-piperazin-1-yl)-ethyl]-cyclohexyl}-propionamide]: the Ki on D3 receptor came to 1.28 nM; at D2 receptor, 74.5 nM.
For `O=C(CC1CC1)N[C@H]1CC[C@H](CCN2CCN(c3cccc4c3OCO4)CC2)CC1` [Example 8, Trans-N-{4-[2-(4-Benzo[1,3]dioxol-4-yl-piperazin-1-yl)-ethyl]-cyclohexyl}-2-cyclopropyl-acetamide] the same measures were 1.23 nM and 142 nM.
As for `COCC(=O)N[C@H]1CC[C@H](CCN2CCN(c3cccc4c3OCO4)CC2)CC1` [Example 9, Trans-N-{4-[2-(4-Benzo[1,3]dioxol-4-yl-piperazin-1-yl)-ethyl]-cyclohexyl}-2-methoxy-acetamide], the Ki at D3 receptor is 4.37 nM; at D2 receptor, 238 nM.
As for `O=C(CO)N[C@H]1CC[C@H](CCN2CCN(c3cccc4c3OCO4)CC2)CC1` [Example 10, Trans-N-{4-[2-(4-Benzo[1,3]dioxol-4-yl-piperazin-1-yl)-ethyl]-cyclohexyl}-2-hydroxy-acetamide], the Ki on D3 receptor was found to be 1.69 nM; at D2 receptor, 184 nM.
Turning to `O=C(N[C@H]1CC[C@H](CCN2CCN(c3cccc4c3OCO4)CC2)CC1)c1ccccc1` [Example 11, Trans-N-{4-[2-(4-Benzo[1,3]dioxol-4-yl-piperazin-1-yl)-ethyl]-cyclohexyl}-benzamide], the inhibitory constant (Ki) was 9.99 nM at D3 receptor and 269 nM on D2 receptor.
In the case of `COC(=O)N[C@H]1CC[C@H](CCN2CCN(c3cccc4c3OCO4)CC2)CC1` [Example 12, Trans-{4-[2-(4-Benzo[1,3]dioxol-4-yl-piperazin-1-yl)-ethyl]-cyclohexyl}-carbamic acid methyl ester], the Ki on D3 receptor stood at 1.29 nM; at D2 receptor it was 68.5 nM.
Consider `Cc1cc(CC(=O)N[C@H]2CC[C@H](CCN3CCN(c4cccc5c4OCO5)CC3)CC2)on1` [Example 13, Trans-N-{4-[2-(4-Benzo[1,3]dioxol-4-yl-piperazin-1-yl)-ethyl]-cyclohexyl}-2-(3-methyl-isoxazol-5-yl)-acetamide], for which the Ki on D3 receptor stood at 1.34 nM; on D2 receptor it was 314 nM.
With `N#CCC(=O)N[C@H]1CC[C@H](CCN2CCN(c3cccc4c3OCO4)CC2)CC1` [Example 14, Trans-N-{4-[2-(4-Benzo[1,3]dioxol-4-yl-piperazin-1-yl)-ethyl]-cyclohexyl}-2-cyano-acetamide], the Ki on D3 receptor was 0.91 nM; at D2 receptor it was 76 nM.
For the compound `O=C(CC1(O)CCCCC1)N[C@H]1CC[C@H](CCN2CCN(c3cccc4c3OCO4)CC2)CC1` [Example 15, Trans-N-{4-[2-(4-Benzo[1,3]dioxol-4-yl-piperazin-1-yl)-ethyl]-cyclohexyl}-2-(1-hydroxy-cyclohexyl)-acetamide], the Ki on D3 receptor worked out at 3.48 nM; on D2 receptor, 160 nM.
`O=C(CC(F)(F)F)N[C@H]1CC[C@H](CCN2CCN(c3cccc4c3OCO4)CC2)CC1` [Example 16, Trans-N-{4-[2-(4-Benzo[1,3]dioxol-4-yl-piperazin-1-yl)-ethyl]-cyclohexyl}-3,3,3-trifluoro-propionamide]: the inhibition constant Ki on D3 receptor stood at 1.57 nM; on D2 receptor, 91.2 nM.
In the same order, the values of `CC(C)C(=O)N[C@H]1CC[C@H](CCN2CCN(c3cccc4c3OCO4)CC2)CC1` [Example 17, Trans-N-{4-[2-(4-Benzo[1,3]dioxol-4-yl-piperazin-1-yl)-ethyl]-cyclohexyl}-isobutyramide] are 1.81 nM and 137 nM.
With `CC(C)CC(=O)N[C@H]1CC[C@H](CCN2CCN(c3cccc4c3OCO4)CC2)CC1` [Example 18, Trans-N-{4-[2-(4-Benzo[1,3]dioxol-4-yl-piperazin-1-yl)-ethyl]-cyclohexyl}-3-methyl-butyramide], the values for the Ki on D3 receptor and at D2 receptor were 2.28 nM and 133 nM, respectively.
In the same order, the values of `CCCC(=O)N[C@H]1CC[C@H](CCN2CCN(c3cccc4c3OCO4)CC2)CC1` [Example 19, Trans-N-{4-[2-(4-Benzo[1,3]dioxol-4-yl-piperazin-1-yl)-ethyl]-cyclohexyl}-butyramide] are 1.58 nM and 144 nM.
Regarding `CO[C@@H]1CC[C@@H](CC(=O)N[C@H]2CC[C@H](CCN3CCN(c4cccc5c4OCO5)CC3)CC2)C1` [Example 23, Trans-N-{4-[2-(4-Benzo[1,3]dioxol-4-yl-piperazin-1-yl)-ethyl]-cyclohexyl}-2-((1R,3R)-3-methoxy-cyclopentyl)-acetamide], the Ki at D3 receptor came to 2.5 nM; at D2 receptor, 183 nM.
In the same order, the values of `CC(C)(O)C(=O)N[C@H]1CC[C@H](CCN2CCN(c3cccc4c3OCO4)CC2)CC1` [Example 24, Trans-N-{4-[2-(4-Benzo[1,3]dioxol-4-yl-piperazin-1-yl)-ethyl]-cyclohexyl}-2-hydroxy-2-methyl-propionamide] are 8.8 nM and 181 nM.
Consider `CC(C)(O)CC(=O)N[C@H]1CC[C@H](CCN2CCN(c3cccc4c3OCO4)CC2)CC1` [Example 27, Trans-N-{4-[2-(4-Benzo[1,3]dioxol-4-yl-piperazin-1-yl)-ethyl]-cyclohexyl}-3-hydroxy-3-methyl-butyramide], for which the Ki on D3 receptor worked out at 1.56 nM; at D2 receptor, 76.8 nM.
`O=C(CC1(O)CCC1)N[C@H]1CC[C@H](CCN2CCN(c3cccc4c3OCO4)CC2)CC1` [Example 28, Trans-N-{4-[2-(4-Benzo[1,3]dioxol-4-yl-piperazin-1-yl)-ethyl]-cyclohexyl}-2-(1-hydroxy-cyclobutyl)-acetamide]: the Ki on D3 receptor stood at 1.4 nM; at D2 receptor it was 94.6 nM.
For `O=C(N[C@H]1CC[C@H](CCN2CCN(c3cccc4c3OCO4)CC2)CC1)C1(O)CC1` [Example 29, Trans-1-Hydroxy-cyclopropanecarboxylic acid {4-[2-(4-benzo[1,3]dioxol-4-yl-piperazin-1-yl)-ethyl]-cyclohexyl}-amide], the results for the Ki at D3 receptor and at D2 receptor were 1.88 nM and 61.5 nM, respectively.
With `CS(=O)(=O)N[C@H]1CC[C@H](CCN2CCN(c3cccc4c3OCO4)CC2)CC1` [Example 34, Trans-N-{4-[2-(4-Benzo[1,3]dioxol-4-yl-piperazin-1-yl)-ethyl]-cyclohexyl}-methanesulfonamide], the Ki at D3 receptor is 3.1 nM; on D2 receptor, 145 nM.
Regarding `O=C(N[C@H]1CC[C@H](CCN2CCN(c3cccc4c3OCO4)CC2)CC1)C1(O)CCCC1` [Example 36, 1-Hydroxy-cyclopentanecarboxylic acid-trans-N-{4-[2-(4-benzo[1,3]dioxol-4-yl-piperazin-1-yl)-ethyl]-cyclohexyl}-amide], the Ki at D3 receptor stood at 11 nM; at D2 receptor, 124 nM.
In the case of `O=C(N[C@H]1CC[C@H](CCN2CCN(c3cccc4c3OCO4)CC2)CC1)C1(O)CCCCC1` [Example 37, 1-Hydroxy-cyclohexanecarboxylic acid-trans-N-{4-[2-(4-benzo[1,3]dioxol-4-yl-piperazin-1-yl)-ethyl]-cyclohexyl}-amide], the results for the Ki at D3 receptor and at D2 receptor were 15.7 nM and 175 nM, respectively.
As for `COC1(C(=O)N[C@H]2CC[C@H](CCN3CCN(c4cccc5c4OCO5)CC3)CC2)CCCCC1` [Example 41, 1-Methoxy-cyclohexanecarboxylic acid-Trans-N-{4-[2-(4-benzo[1,3]dioxol-4-yl-piperazin-1-yl)-ethyl]-cyclohexyl}-amide], the Ki at D3 receptor stood at 12.5 nM; at D2 receptor it was 251 nM.

In general, Ki refers to a dissociation constant, usually derived from enzyme kinetics or from competition with a known ligand. High values mean a looser hold on the target, low ones a stronger hold on the target.
